Measured values published in BigSolDB 2.1.

Compound: CC1=NN(c2ccccc2)C(=O)C1
- solubility (mole fraction) (in 1,4-dioxane, 288.15 K): 0.027
- solubility (mole fraction) (in 1,4-dioxane, 293.15 K): 0.0341
- solubility (mole fraction) (in 1,4-dioxane, 303.15 K): 0.0483
- solubility (mole fraction) (in 1,4-dioxane, 313.15 K): 0.0669
- solubility (mole fraction) (in 1,4-dioxane, 323.15 K): 0.1
- solubility (mole fraction) (in acetone, 283.15 K): 0.0167
- solubility (mole fraction) (in acetone, 293.15 K): 0.0254
- solubility (mole fraction) (in acetone, 303.15 K): 0.0371
- solubility (mole fraction) (in acetone, 313.15 K): 0.0563
- solubility (mole fraction) (in acetone, 323.15 K): 0.108
- solubility (mole fraction) (in acetonitrile, 283.15 K): 0.00788
- solubility (mole fraction) (in acetonitrile, 293.15 K): 0.0126
- solubility (mole fraction) (in acetonitrile, 303.15 K): 0.019
- solubility (mole fraction) (in acetonitrile, 313.15 K): 0.0284
- solubility (mole fraction) (in acetonitrile, 323.15 K): 0.0438
- solubility (mole fraction) (in dichloromethane, 283.15 K): 0.0447
- solubility (mole fraction) (in dichloromethane, 288.15 K): 0.0499
- solubility (mole fraction) (in dichloromethane, 293.15 K): 0.0582
- solubility (mole fraction) (in dichloromethane, 298.15 K): 0.0688
- solubility (mole fraction) (in dichloromethane, 303.15 K): 0.0788
- solubility (mole fraction) (in ethanol, 283.15 K): 0.0176
- solubility (mole fraction) (in ethanol, 293.15 K): 0.024
- solubility (mole fraction) (in ethanol, 303.15 K): 0.0339
- solubility (mole fraction) (in ethanol, 313.15 K): 0.0457
- solubility (mole fraction) (in ethanol, 323.15 K): 0.0597
- solubility (mole fraction) (in ethyl acetate, 283.15 K): 0.0131
- solubility (mole fraction) (in ethyl acetate, 293.15 K): 0.0159
- solubility (mole fraction) (in ethyl acetate, 303.15 K): 0.0198
- solubility (mole fraction) (in ethyl acetate, 313.15 K): 0.0335
- solubility (mole fraction) (in ethyl acetate, 323.15 K): 0.0545
- solubility (mole fraction) (in isobutanol, 283.15 K): 0.0153
- solubility (mole fraction) (in isobutanol, 293.15 K): 0.0218
- solubility (mole fraction) (in isobutanol, 303.15 K): 0.0288
- solubility (mole fraction) (in isobutanol, 313.15 K): 0.0398
- solubility (mole fraction) (in isobutanol, 323.15 K): 0.0573
- solubility (mole fraction) (in isopropanol, 283.15 K): 0.0135
- solubility (mole fraction) (in isopropanol, 293.15 K): 0.0186
- solubility (mole fraction) (in isopropanol, 303.15 K): 0.0268
- solubility (mole fraction) (in isopropanol, 313.15 K): 0.0356
- solubility (mole fraction) (in isopropanol, 323.15 K): 0.0514
- solubility (mole fraction) (in methanol, 283.15 K): 0.0194
- solubility (mole fraction) (in methanol, 293.15 K): 0.0278
- solubility (mole fraction) (in methanol, 303.15 K): 0.0402
- solubility (mole fraction) (in methanol, 313.15 K): 0.0562
- solubility (mole fraction) (in methanol, 323.15 K): 0.0833
- solubility (mole fraction) (in n-butanol, 283.15 K): 0.0194
- solubility (mole fraction) (in n-butanol, 293.15 K): 0.0272
- solubility (mole fraction) (in n-butanol, 303.15 K): 0.0372
- solubility (mole fraction) (in n-butanol, 313.15 K): 0.0504
- solubility (mole fraction) (in n-butanol, 323.15 K): 0.0703
- solubility (mole fraction) (in n-pentanol, 283.15 K): 0.0245
- solubility (mole fraction) (in n-pentanol, 293.15 K): 0.0285
- solubility (mole fraction) (in n-pentanol, 303.15 K): 0.0381
- solubility (mole fraction) (in n-pentanol, 313.15 K): 0.05
- solubility (mole fraction) (in n-pentanol, 323.15 K): 0.069
- solubility (mole fraction) (in n-propanol, 283.15 K): 0.0149
- solubility (mole fraction) (in n-propanol, 293.15 K): 0.025
- solubility (mole fraction) (in n-propanol, 303.15 K): 0.0344
- solubility (mole fraction) (in n-propanol, 313.15 K): 0.0494
- solubility (mole fraction) (in n-propanol, 323.15 K): 0.0689
- solubility (mole fraction) (in sec-butanol, 283.15 K): 0.0156
- solubility (mole fraction) (in sec-butanol, 293.15 K): 0.0218
- solubility (mole fraction) (in sec-butanol, 303.15 K): 0.0296
- solubility (mole fraction) (in sec-butanol, 313.15 K): 0.0404
- solubility (mole fraction) (in sec-butanol, 323.15 K): 0.0579
- solubility (mole fraction) (in water, 283.15 K): 0.000153
- solubility (mole fraction) (in water, 293.15 K): 0.000163
- solubility (mole fraction) (in water, 303.15 K): 0.000174
- solubility (mole fraction) (in water, 313.15 K): 0.000189
- solubility (mole fraction) (in water, 323.15 K): 0.00021
